In one series the test system is Rats. In words: Cholesterol / epicholesterol enriched diets in rats: plasma and liver total cholesterol (enzymatic colorimetric method). The series is classed as in vivo, Male Sprague Dawley rats. Conditions: 4 days. Here is the method:
(§1) Male Sprague Dawley rats weighing 250 g and male CD mice weighing 22-25 g (Charles River) were housed in rooms maintained at 21±1°C with relative humidity 50-60% and a 12 hours light-dark cycle. After a week of housing, the animals were allocated to the different experimental groups and received one of the following diets: • a) rat or mouse chow diet, containing 0.5% sodium cholate; • b) cholesterol enriched diet, containing 0.5% sodium cholate and 1.5% cholesterol; • c) epicholesterol enriched diet, containing 0.5% sodium cholate and 1.5% epicholesterol; • d) epicholesterol and cholesterol enriched diet containing 0.5% sodium cholate and 1.5% of both sterols. Weight of the animals and food consumption were recorded daily. After overnight fasting, the animals were anesthetized with sodium pentobarbital (50 mg/kg body weight) and exsanguinated from the abdominal aorta. Plasma was obtained by low speed (3000 g for 10 min) centrifugation of whole blood containing Na₂EDTA as anticoagulant. Plasma lipid extracts were prepared according to Bligh E.G., Dyer W.J., Can. J. Bioch. Physiol, 31, 911, 1959. Liver specimens (500 mg) were excised from the lateral liver lobe, washed in ice-cold saline, and immediately placed on dry-ice and stored at -80°C. They were extracted according to the method of Folch J. et al., J. Biol. Chem. , 226, 497, 1957, as modified by Carlson L.A., J. Atheroscler. Res., 3, 334, 1963. Plasma and liver total cholesterol content (i.e. unesterified and esterified cholesterol fractions) were determined by the enzymatic colorimetric method of Allain et al., Clin. Chem., 20, 470, 1974. In this assay epicholesterol is not read.

The subject of a further series is Mice. In words: Cholesterol / epicholesterol enriched diets in mice: plasma and liver total cholesterol (enzymatic colorimetric method). The note with it: 4 days. The series is classed as in vivo, male CD mice. The procedure:
as §1

A short description of series [1]: Gas liquid chromatography of unesterified sterols in plasma and liver of mice fed enriched diets. Type of series: in vivo. The note with it: for Percent Distribution Epicholesterol (unesterified sterol content): 1.5% sterol enriched diet, Mean ± SD, n=3, nd: not detectable. The procedure: Male Sprague Dawley rats weighing 250 g and male CD mice weighing 22-25 g (Charles River) were housed in rooms maintained at 21±1°C with relative humidity 50-60% and a 12 hours light-dark cycle. After a week of housing, the animals were allocated to the different experimental groups and received one of the following diets: • a) rat or mouse chow diet, containing 0.5% sodium cholate; • b) cholesterol enriched diet, containing 0.5% sodium cholate and 1.5% cholesterol; • c) epicholesterol enriched diet, containing 0.5% sodium cholate and 1.5% epicholesterol; • d) epicholesterol and cholesterol enriched diet containing 0.5% sodium cholate and 1.5% of both sterols. Weight of the animals and food consumption were recorded daily.
After overnight fasting, the animals were anesthetized with sodium pentobarbital (50 mg/kg body weight) and exsanguinated from the abdominal aorta. Plasma was obtained by low speed (3000 g for 10 min) centrifugation of whole blood containing Na₂EDTA as anticoagulant.
Plasma lipid extracts were prepared according to Bligh E.G., Dyer W.J., Can. J. Bioch. Physiol, 31, 911, 1959.
Liver specimens (500 mg) were excised from the lateral liver lobe, washed in ice-cold saline, and immediately placed on dry-ice and stored at -80°C. They were extracted according to the method of Folch J. et al., J. Biol. Chem. , 226, 497, 1957, as modified by Carlson L.A., J. Atheroscler. Res., 3, 334, 1963.
Lipids extract from plasma and liver were separated by TLC on Silica Gel plates from Merck using petroleum ether 40-70°/diethyl ether/acetic acid (80:20:1) as developing system. Cholesterol, epicholesterol, dihydrocholesterol, and 7-keto-cholesterol as representative of the oxysterol class of sterols migrated with very similar Rf and could be recovered as a single area from the TLC plate. These sterols were eluted from the silica using chloroform and were dried by evaporation under N₂. The samples were redissolved in pyridine and derivatizated adding an equal volume of MBSTFA [N-methyl-N(tert-butyldimethylsilyl)Trifluoroacetamide].
After 20 minutes at room temperature the samples were analyzed by GLC according to Smith N.B., Lipids, 17, 464, 1982, on a Carlo Erba Mega 3000 gaschromatographer equipped with a flame ionization detector and a 25 m OV1 column (0.2 mm id., film thickness 0.2-0.25). He was used as carrier at 100 Kps. The splitless injection technique was used and 1-2 µl sample were injected. […] The injection and the detector temperatures were respectively 340°C and 350°C. Retention time of cholesterol, epicholesterol, dihydrocholesterol and 7keto-cholesterol were determined by injecting pure sterols.

Series [2] can be described thus: Micellar cholesterol solubilization in vitro. The series is classed as physicochemical. Conditions: for Micellar Cholesterol Content: cholesterol 1 mM. Here is the method: The micellar solubility of cholesterol in vitro was measured by the method of Ikeda I., Tanabe Y. and Sugano M. , J. Nutr. Sci. Vitaminol. 35, 361, 1989. In detail, cholesterol (1 mM) or mixture of cholesterol (1 mM) and epicholesterol (0.5-8 mM) were sonicated for 2 minutes at 37°C in 15 mM NaPO₄ buffer, pH 7.4, containing 0.6 mM egg yolk lecithin, 1 mM oleic acid, 0.5 mM monolein, 6.6 mM Na taurocholate, and 132 mM NaCl. After incubation at 37°C overnight, the solutions were subjected to ultracentrifugation (100,000 g for 60 min at 37°C). Samples of the supernatant were assayed for the cholesterol content.

[3] abbreviates: diet with 0.5% sodium cholate and 1.5% of the single sterol.
Where [4] appears, read: diet with 0.5% sodium cholate and 1.5% of the single sterol, listed as cholesterol.
[5] abbreviates: diet with 0.5% sodium cholate and 1.5% of the single sterol, mean±spread.
[6] abbreviates: diet with 0.5% sodium cholate and 1.5% of the single sterol, listed as epicholesterol.
Setting [7] is: diet with 1.5% Cholesterol and 1.5% Epicholesterol together, 0.5% sodium cholate.
Setting [8] is: diet with 1.5% Cholesterol and 1.5% Epicholesterol together, 0.5% sodium cholate, listed as epicholesterol.

These results are taken from patent EP0664129A2, “Epicholesterol for treating dyslipidemia” (PHARMACIA S.p.A., priority 1994, dated 1995).

`CC(C)CCC[C@@H](C)[C@H]1CC[C@H]2[C@@H]3CC=C4C[C@@H](O)CC[C@]4(C)[C@H]3CC[C@]12C` [Cholesterol]: the “CHOLESTEROL CONCENTRATION IN LIVER” value in the series with Rats (setting [3]) is “**11.28±1.48 (n=7) mg/g fresh tissue”; in the series with Rats (setting [4]), “at least a fourfold increase”; in the series with Mice (setting [3]), “**18.70±2.60 (n=10) mg/g fresh tissue”; in the series with Mice (setting [4]) it was “at least a fourfold increase”. Further, the “CHOLESTEROL CONCENTRATION IN PLASMA” value in the series with Rats (setting [5]) is “**178±45 (n=7) mg/dl”; in the series on Rats (diet with 0.5% sodium cholate and 1.5% of the single sterol, mean±spread, listed as cholesterol), “rose significantly”; in the series with Mice (setting [3]), “**152±19 (n=10) mg/dl”; with Mice (setting [4]), “rose significantly”.
For `CC(C)CCC[C@@H](C)[C@H]1CC[C@H]2[C@@H]3CC=C4C[C@H](O)CC[C@]4(C)[C@H]3CC[C@]12C` [Epicholesterol, cholest-5-en-3α-ol], the “CHOLESTEROL CONCENTRATION IN LIVER” value is given as “°° 2.59±0.38 (n=3) mg/g fresh tissue” in the series on Rats (setting [3]); “did not brought about any significant change” in the series with Rats (setting [6]); “** 5.71±0.95 °° (n=3) □ mg/g fresh tissue” in the series on Rats (setting [7]); “significant decrease” in the series on Rats (setting [8]); “°° 2.58±0.16 (n=10) mg/g fresh tissue” in the series on Mice (setting [3]); “did not brought about any significant change” in the series with Mice (setting [6]). The results for the “CHOLESTEROL CONCENTRATION IN LIVER” value with Mice (setting [7]) and in the series with Mice (setting [8]) were “** 9.54±1.49 °° (n=10) □□ mg/g fresh tissue” and “significant decrease”, respectively. The “CHOLESTEROL CONCENTRATION IN PLASMA” value is recorded as “°° 64±18 (n=3) mg/dl” in the series with Rats (setting [5]); “did not brought about any significant change” in the series with Rats (diet with 0.5% sodium cholate and 1.5% of the single sterol, mean±spread, listed as epicholesterol); “**103±9 ° (n=3) □ mg/dl” in the series with Rats (setting [7]); “significant decrease” in the series on Rats (setting [8]); “* 93±15 °°(n=10) mg/dl” with Mice (setting [3]); “did not brought about any significant change” in the series with Mice (setting [6]). Besides, the figures for the “CHOLESTEROL CONCENTRATION IN PLASMA” value in the series with Mice (setting [7]) and in the series on Mice (setting [8]) were “**115±26 □(n=10) mg/dl” and “significant decrease”, respectively. The “absorption by the intestine” value in series [1] (conclusion from plasma and liver sterol content of mice fed 1.5% epicholesterol diet) is recorded as “only minimally absorbed”. In addition, the “Percent Distribution Epicholesterol (unesterified sterol content)” value in series [1] (mice liver) was 1.0±0.4%; in series [1] (mice liver, listed as epicholesterol), “only trace amount”; in series [1] (mice plasma) it was 2.6±1.5%; in series [1] (mice plasma, listed as epicholesterol) it was “only trace amount”. Further, the “Micellar Cholesterol Content” value in series [2] (Cholesterol-to-Epicholesterol Ratio 0.125) was determined as 0.18 ± 0.02 mM; in series [2] (Cholesterol-to-Epicholesterol Ratio 0.25), 0.22 ± 0.03 mM; in series [2] (Cholesterol-to-Epicholesterol Ratio 0.5), 0.23 ± 0.06 mM; in series [2] (Cholesterol-to-Epicholesterol Ratio 1), 0.42 ± 0.03 mM; in series [2] (Cholesterol-to-Epicholesterol Ratio 2, control (cholesterol only) 1.00 ± 0.05) it was 0.71 ± 0.05 mM. Moreover, the “decrease of cholesterol micellar solubility” value in series [2] (cholesterol and epicholesterol in a 1 to 0.5 molar ratio) was “more than 30%”. For the same compound, the cholesterol micellar solubility entry in series [2] (epicholesterol and cholesterol mixed together, all the concentrations tested of epicholesterol (0.5-8 mM)) is given as “significantly decreased”.
